Measured values from patent US20080071331A1, “Photodynamic Therapy For The Treatment Of Prostatic Conditions” (QLT Inc., priority 2004, published 2008).

Test system: prostate
Test: Photodynamic therapy of the dog prostate after direct intraprostatic injection of lemuteporfin and transurethral 690 nm light
Format: in vivo
Settings: mature intact mixed-breed dogs
Protocol: Eight mature, intact, mixed-breed dogs are premedicated with butorphanol (0.4 mg per kilogram of body weight), acepromazine (0.1 mg/kg), and atropine (0.4 mg/kg), all given by intramuscular injection. Anesthesia is induced with intravenous thiopental sodium (8 mg per 0.4536 kilograms of body weight) and maintained with inhaled isoflurane and oxygen (dosage as required for anesthetic effect). Lemuteporfin for injection (A-EA6 in U.S. Pat. No. 5,929,105) is reconstituted with Water for Injection to give a stock concentration of 2.0 mg/ml and diluted with 5% Dextrose in water to a concentration 0.2 mg/ml. A standard cystoscope is inserted into the urethra. Injections of the drug are then delivered to the prostate using a commercially available transurethral injection device (InjecTx™, San Jose, Calif., USA) which is compatible with the cystoscope. Two injections of 0.5 ml are given to each left lobe of the prostate and 2 injections of 1.0 ml are given to each right lobe of the prostate. The transurethral injection device is then removed and a guidewire is inserted through the working channel of the cystoscope. The activation-energy delivery device comprises: a cylindrical fibre optic with a 200 μm diameter core, a 25 mm long diffuser, and a power rating of 175 mW/cm (maximum power load, 437.5 mW); a reflective-cap fibre-centering balloon catheter with a 20 mm treatment window supplied with a guidewire for positioning the device in the urethra; and a 3 W 690 nm red-light diode laser (AOC, South Plainfield, N.J., USA). The catheter is inserted and positioned using the guidewire which is fed through an internal channel of the catheter. Once the catheter is in position the balloon is inflated to secure it in place. The guidewire is removed from the catheter and the fiber optic diffuser is inserted into the catheter and secured in place. The treatment assembly is positioned in the urethra using ultrasonic guidance. Ultrasound is also used to position the needles for four percutaneous intraprostatic injections (two per lobe separated by longitudinally by 1 cm). […]

[1] = 0.2 mg/ml intraprostatic injections, 690 nm light 25, 50 or 100 J/cm^2, after seven days

C=Cc1c(C)c2cc3nc(cc4[nH]c(cc5nc(cc1[nH]2)C(C)=C5CCC(=O)OCCO)c(CCC(=O)OCCO)c4C)[C@@]1(C)C3=CC=C(C(=O)OC)[C@H]1C(=O)OC [Lemuteporfin, lemuteporfin]
Bowel, bladder, and prostate sizes [1]: within normal ranges
PDT-associated damage in the urethra [1]: no significant PDT-associated damage
PDT-associated tissue damage in the target tissue (prostates) (0.2 mg/ml, 2 x 0.5 ml left lobe, 2 x 1.0 ml right lobe, 690 nm light 25, 50 or 100 J/cm^2 15 minutes after last injection, prostates harvested after seven days): evidence of PDT-associated tissue damage in the target tissue
